From PMC4047469 (Molecular & Cellular Proteomics : MCP, 2014)

What was measured:
DDR2 = biological target: T1, DDR2 (Homo sapiens, UniProt Q16832); experiment: autophosphorylation immunoblot; format: cell-based; conditions: 293T cells, collagen I 20 μg/ml, 120 min; E-3810 2, 8, 32 μM
T1 sequence (Q16832 22-855): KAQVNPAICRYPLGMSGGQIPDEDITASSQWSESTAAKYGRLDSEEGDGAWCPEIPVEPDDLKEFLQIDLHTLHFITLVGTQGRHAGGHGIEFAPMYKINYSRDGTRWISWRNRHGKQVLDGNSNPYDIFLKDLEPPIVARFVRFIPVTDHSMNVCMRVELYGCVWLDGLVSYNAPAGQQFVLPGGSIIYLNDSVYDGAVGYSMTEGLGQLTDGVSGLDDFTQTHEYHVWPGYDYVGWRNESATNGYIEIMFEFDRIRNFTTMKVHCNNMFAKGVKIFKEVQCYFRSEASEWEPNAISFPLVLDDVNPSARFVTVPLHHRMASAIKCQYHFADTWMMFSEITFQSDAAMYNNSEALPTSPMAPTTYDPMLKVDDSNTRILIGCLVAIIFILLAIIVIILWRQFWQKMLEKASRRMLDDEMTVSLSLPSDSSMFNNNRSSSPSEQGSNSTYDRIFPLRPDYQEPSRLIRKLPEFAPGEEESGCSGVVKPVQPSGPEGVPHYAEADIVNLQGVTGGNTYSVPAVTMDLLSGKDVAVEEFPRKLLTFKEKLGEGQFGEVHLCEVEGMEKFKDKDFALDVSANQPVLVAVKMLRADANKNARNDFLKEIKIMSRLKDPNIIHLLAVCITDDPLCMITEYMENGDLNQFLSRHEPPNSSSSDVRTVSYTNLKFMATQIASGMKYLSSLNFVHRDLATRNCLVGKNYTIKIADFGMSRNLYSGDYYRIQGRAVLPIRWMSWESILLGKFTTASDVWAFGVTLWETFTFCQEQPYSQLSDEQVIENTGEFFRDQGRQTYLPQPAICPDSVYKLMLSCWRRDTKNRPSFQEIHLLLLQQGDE

FGFR2 = FGFR2 (Homo sapiens, UniProt P21802); experiment: in vitro kinase assay; format: biochemical
SRC = SRC (Homo sapiens, UniProt P12931); experiment: radiometric filter-binding kinase assay; format: biochemical
Chain of SRC (P12931 2-536): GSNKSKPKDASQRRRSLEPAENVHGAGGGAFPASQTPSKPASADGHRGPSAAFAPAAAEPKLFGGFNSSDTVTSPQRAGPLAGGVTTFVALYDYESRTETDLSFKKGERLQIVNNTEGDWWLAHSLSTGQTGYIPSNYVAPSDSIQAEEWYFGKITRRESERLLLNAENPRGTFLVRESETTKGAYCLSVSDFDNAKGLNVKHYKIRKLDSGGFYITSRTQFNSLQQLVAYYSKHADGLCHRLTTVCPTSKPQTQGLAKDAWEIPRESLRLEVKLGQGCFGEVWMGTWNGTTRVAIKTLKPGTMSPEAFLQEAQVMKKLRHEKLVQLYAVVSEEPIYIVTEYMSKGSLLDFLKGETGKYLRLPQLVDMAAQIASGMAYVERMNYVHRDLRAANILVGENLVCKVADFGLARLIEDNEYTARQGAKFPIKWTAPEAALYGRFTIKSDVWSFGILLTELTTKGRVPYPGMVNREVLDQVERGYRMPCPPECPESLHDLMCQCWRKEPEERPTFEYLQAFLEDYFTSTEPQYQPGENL

Chain of FGFR2 (P21802 22-821): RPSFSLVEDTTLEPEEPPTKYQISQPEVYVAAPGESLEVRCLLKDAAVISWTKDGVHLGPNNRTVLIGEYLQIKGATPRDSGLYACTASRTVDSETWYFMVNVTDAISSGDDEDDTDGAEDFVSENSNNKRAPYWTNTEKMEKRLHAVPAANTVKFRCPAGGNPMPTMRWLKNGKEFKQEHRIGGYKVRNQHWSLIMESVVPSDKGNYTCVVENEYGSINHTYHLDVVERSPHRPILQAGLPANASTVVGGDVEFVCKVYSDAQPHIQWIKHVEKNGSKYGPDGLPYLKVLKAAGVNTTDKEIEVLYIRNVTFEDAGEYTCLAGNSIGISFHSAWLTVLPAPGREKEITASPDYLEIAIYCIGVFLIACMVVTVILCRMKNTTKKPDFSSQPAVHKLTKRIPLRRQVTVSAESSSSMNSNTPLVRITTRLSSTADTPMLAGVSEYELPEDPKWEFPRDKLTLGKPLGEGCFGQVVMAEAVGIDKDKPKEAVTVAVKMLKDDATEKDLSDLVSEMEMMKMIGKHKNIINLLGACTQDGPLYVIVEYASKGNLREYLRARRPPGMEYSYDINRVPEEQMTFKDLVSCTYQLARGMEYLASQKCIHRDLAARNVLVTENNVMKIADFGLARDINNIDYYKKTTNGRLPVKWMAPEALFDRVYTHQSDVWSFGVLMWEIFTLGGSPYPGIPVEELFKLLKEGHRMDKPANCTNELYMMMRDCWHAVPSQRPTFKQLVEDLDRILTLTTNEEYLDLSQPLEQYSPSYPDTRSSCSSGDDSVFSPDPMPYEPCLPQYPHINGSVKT

IC50 (FGFR2): 0.077 µM
Ki (SRC): > 50 µM
Compound: CNC(=O)c1cccc2cc(Oc3ccnc4cc(OCC5(N)CC5)c(OC)cc34)ccc12 [compound 1, E-3810]
autophosphorylation immunoblot (DDR2): increasing concentrations of E-3810 resulted in the reduction of DDR2 autophosphorylation
